According to ChEMBL document CHEMBL5344429, “1,3-Substituted β-Carboline Derivatives as Potent Chemotherapy for the Treatment of Cystic Echinococcosis” (J Med Chem, 2023):
Active and inactive are the calls of the source. The rule behind the calls is not given here.

How the values were obtained:
Echinococcus granulosus [1] = test: Inhibition of Echinococcus granulosus; type: functional
Echinococcus granulosus [2] = test: Antiparasitic acitivity against Echinococcus granulosus infected at 25 mg/kg; type: functional
Echinococcus granulosus [3] = test: Parasiticidal activity against Echinococcus granulosus protoscolices […] by eosin exclusion test; type: functional; settings: 1152 h, time 48 day
Echinococcus granulosus [4] = test: Parasiticidal activity against Echinococcus granulosus protoscolices assessed as death rate at 5 uM incubated for 4 days by eosin exclusion test; type: functional; settings: time 4 day
Echinococcus granulosus [5] = test: Parasiticidal activity against Echinococcus granulosus protoscolices assessed as lethal effect incubated for 4 days by eosin exclusion test; type: functional, organism-based; settings: dose 0.5-5 µM, time 4.0 day
Echinococcus granulosus [6] = test: Parasiticidal activity against Echinococcus granulosus protoscolices assessed as death rate at 0.5 uM incubated for 4 days by eosin exclusion test; type: functional; settings: time 4 day
Echinococcus granulosus [7] = test: Parasiticidal activity against Echinococcus granulosus protoscolices assessed as increase in death rate at 5 uM incubated for 4 days by darker staining-based light microscopy; type: functional, organism-based; settings: time 4.0 day
Echinococcus granulosus [8] = test: Parasiticidal activity against Echinococcus granulosus protoscolices assessed as appearance of whole body vacuolation at 5 uM incubated for 4 days by H and E based staining assay; type: functional, organism-based; settings: time 4.0 day
Echinococcus granulosus [9] = test: Parasiticidal activity against Echinococcus granulosus protoscolices assessed as appearance of dissolved and disappeared matrix at 5 uM incubated for 4 days by H and E staining based assay; type: functional, organism-based; settings: time 4.0 day
Echinococcus granulosus [10] = test: Parasiticidal activity against Echinococcus granulosus protoscolices assessed as appearance of disintegrated marginal structure at 5 uM incubated for 4 days by H and E staining based assay; type: functional, organism-based; settings: time 4.0 day
Echinococcus granulosus [11] = test: Parasiticidal activity against Echinococcus granulosus protoscolices assessed as degeneration of outer skin at 5 uM incubated for 4 days by scanning electron microscopy; type: functional, organism-based; settings: time 4.0 day
Echinococcus granulosus [12] = test: Parasiticidal activity against Echinococcus granulosus protoscolices assessed as loss of hooks at 5 uM incubated for 4 days by scanning electron microscopy; type: functional, organism-based; settings: time 4.0 day
Echinococcus granulosus [13] = test: Parasiticidal activity against Echinococcus granulosus protoscolices assessed as loss of suckers at 5 uM incubated for 4 days by scanning electron microscopy; type: functional; settings: time 4 day
Echinococcus granulosus [14] = test: Parasiticidal activity against Echinococcus granulosus assessed as collapse of germinal layers at 100 uM incubated for 4 days by scanning electron microscopy; type: functional, organism-based; settings: time 4.0 day
Echinococcus granulosus [15] = test: Parasiticidal activity against Echinococcus granulosus cyst assessed as seperation from cuticle at 100 uM incubated for 4 days by scanning electron microscopy; type: functional, organism-based; settings: time 4.0 day
Echinococcus granulosus [16] = test: Parasiticidal activity against Echinococcus granulosus cyst assessed as formation of dense aggregates at 100 uM incubated for 4 days by scanning electron microscopy; type: functional, organism-based; settings: time 4.0 day
[17] = Cmax in Wistar rat at 5 mg/kg, iv by HPLC analysis; type: ADME, organism-based; design: dose 5 mg/kg, route iv; settings: in vivo
[18] = AUC (0 to infinity) in Wistar rat at 5 mg/kg, iv by HPLC analysis; type: ADME, organism-based; design: dose 5 mg/kg, route iv; settings: in vivo
[19] = Half life in Wistar rat at 5 mg/kg, iv by HPLC analysis; type: ADME, organism-based; settings: in vivo
[20] = Half life in Wistar rat at 50 mg/kg, ip by HPLC analysis; type: ADME, organism-based; settings: in vivo
[21] = Oral bioavailability in Wistar rat at 50 mg/kg, […] by HPLC analysis; type: ADME, organism-based; settings: in vivo
Echinococcus granulosus [22] = test: Parasiticidal activity against Echinococcus granulosus microcyst infected in kunming mouse assessed as mean cyst weight at 50 mg/kg, ip administered for 14 days; type: functional; settings: time 14 day
Echinococcus granulosus [23] = test: Parasiticidal activity against Echinococcus granulosus microcyst infected in kunming mouse assessed as mean cyst weight at 50 mg/kg, ip administered for 28 days; type: functional; settings: time 28 day
Echinococcus granulosus [24] = test: Parasiticidal activity against Echinococcus granulosus microcyst infected in kunming mouse assessed as mean cyst weight at 25 mg/kg, ip administered for 14 days; type: functional; settings: time 14 day
Echinococcus granulosus [25] = test: Parasiticidal activity against Echinococcus granulosus microcyst infected in kunming mouse assessed as mean cyst weight at 25 mg/kg, ip administered for 28 days; type: functional; settings: time 28 day
Echinococcus granulosus [26] = test: Parasiticidal activity against Echinococcus granulosus microcyst infected in kunming mouse assessed as mean cyst weight at 12.5 mg/kg, ip administered for 14 days; type: functional; settings: time 14 day
Echinococcus granulosus [27] = test: Parasiticidal activity against Echinococcus granulosus microcyst infected in kunming mouse assessed as mean cyst weight at 12.5 mg/kg, ip administered for 28 days; type: functional; settings: time 28 day
Echinococcus granulosus [28] = test: Parasiticidal activity against Echinococcus granulosus microcyst infected in kunming mouse assessed as reduction in cyst weight at 50 mg/kg, ip administered for 14 days relative to control; type: functional; design: scale not given: the % may be the effect or the level left; settings: time 14 day
Echinococcus granulosus [29] = test: Parasiticidal activity against Echinococcus granulosus microcyst infected in kunming mouse assessed as reduction in cyst weight at 50 mg/kg, ip administered for 28 days relative to control; type: functional; design: scale not given: the % may be the effect or the level left; settings: time 28 day
Echinococcus granulosus [30] = test: Parasiticidal activity against Echinococcus granulosus microcyst infected in kunming mouse assessed as reduction in cyst weight at 25 mg/kg, ip administered for 14 days relative to control; type: functional; design: scale not given: the % may be the effect or the level left; settings: time 14 day
Echinococcus granulosus [31] = test: Parasiticidal activity against Echinococcus granulosus microcyst infected in kunming mouse assessed as reduction in cyst weight at 25 mg/kg, ip administered for 28 days relative to control; type: functional; design: scale not given: the % may be the effect or the level left; settings: time 28 day
Echinococcus granulosus [32] = test: Parasiticidal activity against Echinococcus granulosus microcyst infected in kunming mouse assessed as reduction in cyst weight at 12.5 mg/kg, ip administered for 14 days relative to control; type: functional; design: scale not given: the % may be the effect or the level left; settings: time 14 day
Echinococcus granulosus [33] = test: Parasiticidal activity against Echinococcus granulosus microcyst infected in kunming mouse assessed as reduction in cyst weight at 12.5 mg/kg, ip administered for 28 days relative to control; type: functional; design: scale not given: the % may be the effect or the level left; settings: time 28 day
Echinococcus granulosus [34] = test: Parasiticidal activity against intraperitoneal cystic Echinococcus granulosus infected in Kunming mouse assessed as appearance of vacuole-like structure at 50 mg/kg, ip administered for 28 days by TEM analysis; type: functional, organism-based; settings: time 28.0 day
Echinococcus granulosus [35] = test: Parasiticidal activity against intraperitoneal cystic Echinococcus granulosus infected in Kunming mouse assessed as cell structure destruction at 50 mg/kg, ip administered for 28 days by TEM analysis; type: functional, organism-based; settings: time 28.0 day
Echinococcus granulosus [36] = test: Parasiticidal activity against intraperitoneal cystic Echinococcus granulosus infected in Kunming mouse assessed as disappearance of nucleolus at 50 mg/kg, ip administered for 28 days by TEM analysis; type: functional, organism-based; settings: time 28.0 day
[37] = Neurotoxicity in Kunming mouse assessed as loosely arranged pyramidal cells in brain at 50 mg/kg, ip administered for 28 days by H and E staining based assay; type: toxicity, organism-based; settings: in vivo, 672 h, time 28 day
[38] = Neurotoxicity in Kunming mouse assessed as swollen pyramidal cells in brain at 50 mg/kg, ip administered for 28 days by H and E staining based assay; type: toxicity, organism-based; settings: in vivo, 672 h, time 28 day
[39] = Neurotoxicity in Kunming mouse assessed as deformed pyramidal cells in brain at 50 mg/kg, ip administered for 28 days by H and E staining based assay; type: toxicity, organism-based; settings: in vivo, 672 h, time 28 day
Echinococcus granulosus [40] = test: Induction of autophagy in Echinococcus granulosus protoscolices assessed as decrease in p62 expression level at 5 uM measured after 4 days by Western blot analysis; type: functional, organism-based; settings: time 4.0 day
Echinococcus granulosus [41] = test: Induction of autophagy in Echinococcus granulosus protoscolices assessed as increase in ATG5 expression level at 5 uM measured after 4 days by Western blot analysis; type: functional, organism-based; settings: time 4.0 day
Echinococcus granulosus [42] = test: Induction of autophagy in Echinococcus granulosus protoscolices assessed as increase in Beclin1 expression level at 5 uM measured after 4 days by Western blot analysis; type: functional, organism-based; settings: time 4.0 day
Echinococcus granulosus [43] = test: Parasiticidal activity against Echinococcus granulosus protoscolices assessed as lethal effect at 0.5 to 5 uM by eosin exclusion test; type: functional, organism-based; settings: dose 0.5-5 µM, TDE = time-dependent effect
Echinococcus granulosus [44] = test: Potency index, ratio of Albendazole LC50 to test compound LC50 for Parasiticidal activity against Echinococcus granulosus protoscolices; type: functional
Echinococcus granulosus [45] = test: Parasiticidal activity against Echinococcus granulosus protoscolices assessed as change in ultrastructure at 5 uM incubated for 4 days by scanning electron microscopy; type: functional, organism-based; settings: time 4.0 day
[46] = Neurotoxicity in Kunming mouse assessed as effect on hippocampal structure at 50 mg/kg, ip administered for 28 days by TEM analysis; type: toxicity, organism-based; settings: in vivo, 672 h, time 28 day
[47] = Neurotoxicity in Kunming mouse assessed as effect on hippocampal arrangement at 50 mg/kg, ip administered for 28 days by TEM analysis; type: toxicity, organism-based; settings: in vivo, 672 h, time 28 day
[48] = Neurotoxicity in Kunming mouse assessed as effect on heterochromatin at 50 mg/kg, ip administered for 28 days by TEM analysis; type: toxicity, organism-based; settings: in vivo, 672 h, time 28 day
[49] = Neurotoxicity in Kunming mouse assessed as organelles damage at 50 mg/kg, ip administered for 28 days by TEM analysis; type: toxicity, organism-based; settings: in vivo, 672 h, time 28 day
[50] = Neurotoxicity in Kunming mouse assessed as nuclei damage at 50 mg/kg, ip administered for 28 days by TEM analysis; type: toxicity, organism-based; settings: in vivo, 672 h, time 28 day

## CCCCn1c2ccccc2c2ccnc(-c3ccccc3Cl)c21
Echinococcus granulosus [1]
  LC50: 41.6 µM
Echinococcus granulosus [2]
  Activity: 32.91%

## COc1ccc(-c2nc(NC(=O)c3ccc(CN4CCC(O)CC4)cc3)cc3c2[nH]c2ccccc23)cc1
Echinococcus granulosus [3]
  LC50: 1.61 µM
Echinococcus granulosus [4]
  Activity: >90%
Echinococcus granulosus [5]
  Activity: Dose-Dependent Effect
Echinococcus granulosus [6]
  Activity: >50%
Echinococcus granulosus [7]
  Activity: Active
Echinococcus granulosus [8]
  Activity: Active
Echinococcus granulosus [9]
  Activity: Active
Echinococcus granulosus [10]
  Activity: Active
Echinococcus granulosus [11]
  Activity: Active
Echinococcus granulosus [12]
  Activity: Active
Echinococcus granulosus [13]
  Activity: 67.5%
Echinococcus granulosus [14]
  Activity: Active
Echinococcus granulosus [15]
  Activity: Active
Echinococcus granulosus [16]
  Activity: Active
[17]
  Cmax: 3040 ng/mL
[18]
  AUC(0-inf): 3000 ng·h/mL
[19]
  half-life: 3.11 h
[20]
  half-life: 9.08 h
[21]
  bioavailability: 42.4%
Echinococcus granulosus [22]
  Activity: 13.7 mg
Echinococcus granulosus [23]
  Activity: 12.6 mg
Echinococcus granulosus [24]
  Activity: 18.1 mg
Echinococcus granulosus [25]
  Activity: 15.2 mg
Echinococcus granulosus [26]
  Activity: 20.9 mg
Echinococcus granulosus [27]
  Activity: 17.8 mg
Echinococcus granulosus [28]
  Activity: 73.35%
Echinococcus granulosus [29]
  Activity: 76.87%
Echinococcus granulosus [30]
  Activity: 64.79%
Echinococcus granulosus [31]
  Activity: 72.05%
Echinococcus granulosus [32]
  Activity: 59.41%
Echinococcus granulosus [33]
  Activity: 51.12%
Echinococcus granulosus [34]
  Activity: Active
Echinococcus granulosus [35]
  Activity: Active
Echinococcus granulosus [36]
  Activity: Active
[37]
  Activity: Non-Toxic
[38]
  Activity: Non-Toxic
[39]
  Activity: Non-Toxic
Echinococcus granulosus [40]
  Activity: Active
Echinococcus granulosus [41]
  Activity: Active
Echinococcus granulosus [42]
  Activity: Active
Echinococcus granulosus [43]
  Activity: Tde
Echinococcus granulosus [44]
  RatioLC50: 95
Echinococcus granulosus [45]
  Activity: Active
[46]
  Activity: Non-Toxic
[47]
  Activity: Non-Toxic
[48]
  Activity: Non-Toxic
[49]
  Activity: Non-Toxic
[50]
  Activity: Non-Toxic
